Test results as given in US6190848A, “Color photographic element containing ballasted triazole derivative and inhibitor releasing coupler” (priority 1999, dated 2001).

Tests used:
[1] = Single layer film element contrast (gamma) reduction by DI(A)R couplers, KODAK FLEXICOLOR C-41; conditions: DIR tested at 0.055 mmol/m^2, relative to non-inhibitor containing check
Source text: The mild inhibitor fragments that are used in this invention are defined as those that cause less than a 45% gamma reduction, or more preferably less than a 40% gamma reduction, relative to a non-inhibitor containing check when coated as the following single layer film element on a cellulose triacetate film support (coverages are in g/m^2):
Overcoat Gelatin at 2.79 and 0.02 bis-vinylsulfonemethylether
Imaging Layer Gelatin at 2.79
Magenta Image Coupler M-1 (dispersed at 80% by
weight in tricresyl phosphate and 20% by weight
N,N-dibutyl-2-butoxy-5-t-octylaniline) at 0.692
DIR being tested at 0.055 mmol/m^2 ( dispersed in twice
its weight in N,N-dibutyllauramide)
Green sensitized AgBrI at 1.08
Samples of each element were given a stepped exposure and processed in the KODAK FLEXICOLOR™ (C-41) process as described in British Journal of Photography Annual, 1988, pp 196-198. Contrast of the elements was determined using the maximum slope between any two density points.

[2] = Bilayer photographic element: interimage (Cg/Cb+g) and relative green sensitivity; conditions: for Cg /Cb+g (interimage ratio): Table II, IDIR-2 in blue layer, IEM or CIEM at 7.2×10^-3 mmol/m^2; for interimage effect: bilayer, --N--H group removed
Method: Bilayer photographic elements were prepared by coating the following layers on a cellulose triacetate film support (coverages are in g/m^2). Unless otherwise noted, all comparative and inventive compounds were dispersed in twice their own weight of N,N-dibutyllauramide:
Layer 1 (Antihalation Layer): black colloidal elemental silver at 0.34 and gelatin at2.41.
Layer 2 (Receiver Layer): gelatin at 2.79, CDIR-2 at 0.03, coupler M-1 (dispersed as described previously) added at 0.045, comparison material (CIEM) or IEM added at 7.2×10^-3 mmol/m^2 (this corresponds to 1.67 mmol per mole silver as AgBr or 0.96 mmol per mole of silver) dispersed in twice its own weight of N,N-dibutyllauramide and 0.81 green sensitized AgIBr tabular emulsion.
Layer 3 (Interlayer): gelatin at 0.64, ILS-1 at 0.11 and FD-1 at 0.11.
Layer 4 (Causer Layer): gelatin at 2.79, coupler Y-1 at 0.91, 0.79 blue sensitized AgIBr tabular emulsion and the DIR at 0.11 mmol/m^2.
Layer 5 (Overcoat): gelatin at 2.79 and 0.02 bis-vinylsulfonemethylether.
Samples of each element were given a stepped exposure of either green light only or blue and green light combined and processed in the KODAK FLEXICOLOR (C-41) process as described in British Journal of Photography Annual, 1988, pp196-198. Contrast of the elements was determined using the maximum slope between any two density points. In this test, the ratio of the contrast of the green only exposure to the contrast of the green of a blue and green exposure (Cg /Cb+g) is a measure of the interimage. A higher ratio means more inhibition originating from the blue and affecting the green record.
Another set of bilayer experiments were generated in a similar manner to show the effect of IEM laydown (as mmol per mol silver) and DIR variations.

CCCCCCCCCCCCCCOc1ccccc1NC(=O)c1cc(Oc2ccc(CSc3nnnn3Cc3ccc(OC)cc3)cc2[N+](=O)[O-])c2ccccc2c1O [CDIR-1]
% Contrast Reduction [1]: -55.4%

CCC(Oc1ccc(C(C)(C)CC)cc1C(C)(C)CC)C(=O)Nc1ccc(N2N=C(N3CCCC3)C(Sc3nnnn3-c3ccccc3)C2=O)cc1 (stereo not shown) [CDIR-2]
% Contrast Reduction [1]: -67.1%

CCCCCCCCCCCCCCOc1ccccc1NC(=O)c1cc(Oc2ccc([N+](=O)[O-])cc2CN(C(=O)Sc2nnnn2-c2ccccc2)C(C)C)c2ccccc2c1O [CDIR-3]
% Contrast Reduction [1]: -75.7%

CCCCCCCCCCCCCCOc1ccccc1NC(=O)c1cc(Oc2ccc(CSc3nnnn3-c3ccccc3)cc2[N+](=O)[O-])c2ccccc2c1O [CDIR-4]
% Contrast Reduction [1]: -77.1%

CCCCCCCCCCCCCCOc1ccccc1NC(=O)c1cc(Oc2ccc(CSc3nnnn3-c3ccccc3)cc2[N+](=O)[O-])c2ccccc2c1O [CDIR-5]
% Contrast Reduction [1]: -70.5%

CCCCCCCCCCCCCCOc1ccccc1NC(=O)c1cc(Sc2nnnn2-c2ccccc2)c2ccccc2c1O [CDIR-6]
% Contrast Reduction [1]: -75.4%

CCCCCCCCCCCCCCCCS(=O)(=O)Nc1ccc(Cl)c(NC(=O)C(Oc2ccc([N+](=O)[O-])cc2CN(CC)C(=O)Sc2nnnn2-c2ccccc2)C(=O)C(C)(C)C)c1 (stereo not shown) [CDIR-7]
% Contrast Reduction [1]: -63.9%

CCCCCCOC(=O)c1nn(C2C(=O)N(c3ccc(NC(=O)C(CC)Oc4ccc(C(C)(C)CC)cc4C(C)(C)CC)cc3)N=C2C)nc1C (stereo not shown) [CDIR-8]
% Contrast Reduction [1]: -49.2%

CCCCCCCCCCC(Oc1ccc(S(=O)(=O)c2ccc(O)cc2)cc1)C(=O)Nc1ccc(N2N=C(C)C(n3nc(C)c(C(=O)OCCCCCC)n3)C2=O)cc1 (stereo not shown) [CDIR-9]
% Contrast Reduction [1]: -50.1%

CCCCCCCCCCCCCCCCS(=O)(=O)Nc1ccc(Cl)c(NC(=O)C(C(=O)C(C)(C)C)n2nc(C)c(C(=O)OCCCCCC)n2)c1 (stereo not shown) [CDIR-10]
% Contrast Reduction [1]: -53.8%

CCCCCCCCCCCCCCCCS(=O)(=O)Nc1ccc(Cl)c(NC(=O)C(C(=O)C(C)(C)C)n2ncc(SCC(=O)OCCCCCC)n2)c1 (stereo not shown) [CDIR-11]
% Contrast Reduction [1]: -58.6%

CCCCCCCC(=O)Nc1ccc2[nH]nnc2c1 [CIEM-1]
Cg /Cb+g (interimage ratio) [2]: 1.25

CCCCC(CC)CNC(=O)c1ccc2[nH]nnc2c1 (stereo not shown) [CIEM-2]
Cg /Cb+g (interimage ratio) [2]: 1.26

CCCCCCCCCOC(=O)c1nc[nH]n1 [CIEM-3]
Cg /Cb+g (interimage ratio) [2]: 1.23

CCCCCCSCCOC(=O)c1nc[nH]n1 [CIEM-4]
Cg /Cb+g (interimage ratio) [2]: 1.19

CCCCCCCCc1nc2ccccc2[nH]1 [CIEM-5]
Cg /Cb+g (interimage ratio) [2]: 1.19

O=S(=O)(NCCc1ccccc1)c1ccc2[nH]nnc2c1 [CIEM-6]
Cg /Cb+g (interimage ratio) [2]: 1.24

CCCSCCCOC(=O)c1ccc2[nH]nnc2c1 [CIEM-7]
Cg /Cb+g (interimage ratio) [2]: 1.26

CCCCCCCCCCOC(=O)CSc1nnc[nH]1 [CIEM-8]
Cg /Cb+g (interimage ratio) [2]: 1.22

O=C(Nc1cccc(Oc2ccccc2)c1)c1ccc2[nH]nnc2c1 [CIEM-9]
Cg /Cb+g (interimage ratio) [2]: 1.30

O=C(c1ccc2[nH]nnc2c1)N1CCCc2ccccc21 [CIEM-10]
Cg /Cb+g (interimage ratio) [2]: 1.18

CCCCc1ccc(NC(=O)c2ccc3[nH]nnc3c2)cc1 [CIEM-11]
Cg /Cb+g (interimage ratio) [2]: 1.26

O=C(Oc1ccccc1)c1ccc2[nH]nnc2c1 [CIEM-12]
Cg /Cb+g (interimage ratio) [2]: 1.24

CCC(C)(C)c1ccc(OCCCCC(=O)Nc2ccc3c(c2)nnn3C(=O)N2CCOCC2)c(C(C)(C)CC)c1 [CIEM-13]
Cg /Cb+g (interimage ratio) [2]: 1.30
interimage effect [2]: the effect is insufficient

CCC(C)(C)c1ccc(OCCCCC(=O)Nc2ccc3c(c2)nnn3C)c(C(C)(C)CC)c1 [CIEM-14]
Cg /Cb+g (interimage ratio) [2]: 1.31
interimage effect [2]: the effect is insufficient

CCCCCCCCCCCCCCCc1cccc(OCCCCNC(=O)c2ccc3[nH]nnc3c2)c1 [CIEM-15]
Cg /Cb+g (interimage ratio) [2]: 1.26

CCCCCCCCCCCCSc1nc2ccccc2[nH]1 [CIEM-16]
Cg /Cb+g (interimage ratio) [2]: 1.27

CCC(C)(C)c1ccc(OCCCCNC(=O)CSc2nc3ccccc3[nH]2)c(C(C)(C)CC)c1 [CIEM-17]
Cg /Cb+g (interimage ratio) [2]: 1.23

CCCCCCCCCCCCCCCCS(=O)(=O)Nc1cc(CSc2nnnn2CC(=O)OCCC)ccc1Oc1cc(C(N)=O)c(O)c2ccccc12 [IDIR-1]
% Contrast Reduction [1]: -34.5%

CCCCCCCCCCCCCCCCS(=O)(=O)Nc1ccc(Cl)c(NC(=O)C(Oc2ccc([N+](=O)[O-])cc2CN(CC)C(=O)Sc2nnnn2CC(=O)OCCC)C(=O)C(C)(C)C)c1 (stereo not shown) [IDIR-2]
% Contrast Reduction [1]: -25.3%

CCCCCCCCCCCCOc1ccc(C)cc1NC(=O)c1cc(Oc2ccc(CSc3nnnn3CC(=O)OCCC)cc2[N+](=O)[O-])c2ccccc2c1O [IDIR-3]
% Contrast Reduction [1]: -24.5%

CCCOC(=O)Cn1nnnc1SC1C(=O)N(c2ccc(NC(=O)C(CC)Oc3ccc(C(C)(C)CC)cc3C(C)(C)CC)cc2)N=C1N1CCCC1 (stereo not shown) [IDIR-4]
% Contrast Reduction [1]: -22.6%

CCCCCCCCCCCCOC(=O)C(C)OC(=O)c1ccc(Cl)c(NC(=O)C(C(=O)Nc2cc(C(=O)OC(C)C(=O)OCCCCCCCCCCCC)ccc2Cl)n2nnc3cc(Cl)c(Cl)cc32)c1 (stereo not shown) [IDIR-7]
% Contrast Reduction [1]: -20.0%

CCCCCCCCCCCCCCOc1ccccc1NC(=O)c1cc(Sc2nnnn2CC)c2ccccc2c1O [IDIR-8]
% Contrast Reduction [1]: -2.4%

CCCCCCCCCC(=O)Nc1ccc2[nH]nnc2c1 [IEM-B]
Cg /Cb+g (interimage ratio) [2]: 1.39

CCCCCCCCCCCC(=O)Nc1ccc2[nH]nnc2c1 [IEM-C]
Cg /Cb+g (interimage ratio) [2]: 1.64

CCCCCCCCCCC(Oc1ccc(S(=O)(=O)c2ccc(O)cc2)cc1)C(=O)Nc1ccc2[nH]nnc2c1 (stereo not shown) [IEM-D]
Cg /Cb+g (interimage ratio) [2]: 1.49

CCCCCCCCCCCCSc1nc[nH]n1 [IEM-H]
Cg /Cb+g (interimage ratio) [2]: 1.44
